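Cells were grown in 96-well plates and exposed to each compound for 48 hours at five concentrations; endpoints were interpolated linearly between bracketing concentrations, or set to the highest concentration if not reached. The concentration for 50% growth inhibition is given as GI50. TGI marks complete inhibition of growth.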
Key:
Experiment in all cases: NCI-60 cell line screen, 48 h
SK-MEL-28 melanoma = system: SK-MEL-28 melanoma
CCRF-CEM leukemia = system: CCRF-CEM leukemia
NCI/ADR-RES ovarian = system: NCI/ADR-RES ovarian
SF-539 CNS = system: SF-539 CNS
ACHN renal = system: ACHN renal
OVCAR-8 ovarian = system: OVCAR-8 ovarian
CAKI-1 renal = system: CAKI-1 renal
HS 578T breast = system: HS 578T breast
SK-OV-3 ovarian = system: SK-OV-3 ovarian
NCI-H522 lung = system: NCI-H522 lung
SNB-75 CNS = system: SNB-75 CNS
MCF7 breast = system: MCF7 breast
OVCAR-4 ovarian = system: OVCAR-4 ovarian
UACC-257 melanoma = system: UACC-257 melanoma
IGROV1 ovarian = system: IGROV1 ovarian
T-47D breast = system: T-47D breast
UACC-62 melanoma = system: UACC-62 melanoma
OVCAR-3 ovarian = system: OVCAR-3 ovarian
SR leukemia = system: SR leukemia
HL-60(TB) leukemia = system: HL-60(TB) leukemia
NCI-H23 lung = system: NCI-H23 lung
SN12C renal = system: SN12C renal
LOX IMVI melanoma = system: LOX IMVI melanoma
MDA-MB-435 = system: MDA-MB-435
HCT-15 colon = system: HCT-15 colon
MALME-3M melanoma = system: MALME-3M melanoma
RXF 393 renal = system: RXF 393 renal
K-562 leukemia = system: K-562 leukemia
786-0 renal = system: 786-0 renal
U251 CNS = system: U251 CNS
NCI-H226 lung = system: NCI-H226 lung
HT29 colon = system: HT29 colon
EKVX NSCLC = system: EKVX NSCLC
UO-31 renal = system: UO-31 renal
TK-10 renal = system: TK-10 renal
DU-145 prostate = system: DU-145 prostate
SK-MEL-2 melanoma = system: SK-MEL-2 melanoma
HOP-92 NSCLC = system: HOP-92 NSCLC
A498 renal = system: A498 renal
SK-MEL-5 melanoma = system: SK-MEL-5 melanoma
RPMI-8226 leukemia = system: RPMI-8226 leukemia
COLO 205 colon = system: COLO 205 colon
SF-295 CNS = system: SF-295 CNS
MOLT-4 leukemia = system: MOLT-4 leukemia
PC-3 prostate = system: PC-3 prostate
OVCAR-5 ovarian = system: OVCAR-5 ovarian
HCC-2998 colon = system: HCC-2998 colon
HOP-62 NSCLC = system: HOP-62 NSCLC
SNB-19 CNS = system: SNB-19 CNS
BT-549 breast = system: BT-549 breast
MDA-MB-231 breast = system: MDA-MB-231 breast
NCI-H460 lung = system: NCI-H460 lung
KM12 colon = system: KM12 colon
SW-620 colon = system: SW-620 colon
A549 NSCLC = system: A549 NSCLC
HCT-116 colon = system: HCT-116 colon
M14 melanoma = system: M14 melanoma
SF-268 CNS = system: SF-268 CNS

## Cc1c2c(cc[n+]1Cc1ccccc1)c1ccc(OCC3CCCCC3)cc1n2CC1CCCCC1
SK-MEL-28 melanoma
  GI50: 0.59 µM
  TGI: 1.88 µM
CCRF-CEM leukemia
  GI50: 0.207 µM
  TGI: 0.787 µM
NCI/ADR-RES ovarian
  GI50: 1.75 µM
  TGI: 4.29 µM
SF-539 CNS
  GI50: 1.49 µM
  TGI: 2.88 µM
ACHN renal
  GI50: 1.24 µM
  TGI: 2.53 µM
OVCAR-8 ovarian
  GI50: 0.364 µM
  TGI: 1.35 µM
CAKI-1 renal
  GI50: 1.28 µM
  TGI: 2.64 µM
HS 578T breast
  GI50: 0.525 µM
  TGI: 4.06 µM
SK-OV-3 ovarian
  GI50: 0.506 µM
  TGI: 1.56 µM
NCI-H522 lung
  GI50: 0.261 µM
  TGI: 0.788 µM
SNB-75 CNS
  GI50: 0.293 µM
  TGI: 1.47 µM
MCF7 breast
  GI50: 0.306 µM
  TGI: 1.11 µM
OVCAR-4 ovarian
  GI50: 0.235 µM
  TGI: 0.735 µM
UACC-257 melanoma
  GI50: 0.299 µM
  TGI: 0.961 µM
IGROV1 ovarian
  GI50: 0.525 µM
  TGI: 2.51 µM
T-47D breast
  GI50: 0.56 µM
  TGI: 1.79 µM
UACC-62 melanoma
  GI50: 0.342 µM
  TGI: 1.28 µM

## Clc1ccc2c(NCCCN3CCN(c4nc(-n5ccnc5)nc5ccccc45)CC3)ccnc2c1
OVCAR-3 ovarian
  GI50: 1.55 µM
  TGI: 3.15 µM
SR leukemia
  GI50: 1.9 µM
  TGI: 5.7 µM
SK-MEL-28 melanoma
  GI50: 1.8 µM
  TGI: 3.34 µM
HL-60(TB) leukemia
  GI50: 2.17 µM
  TGI: 5.18 µM
NCI-H23 lung
  GI50: > 27.5 µM
  TGI: > 100 µM
SN12C renal
  GI50: > 100 µM
  TGI: > 100 µM
LOX IMVI melanoma
  GI50: 1.84 µM
  TGI: 3.69 µM
MDA-MB-435
  GI50: 1.74 µM
  TGI: 3.2 µM
CCRF-CEM leukemia
  GI50: 2.87 µM
  TGI: > 100 µM
HCT-15 colon
  GI50: 1.61 µM
  TGI: 3.8 µM
MALME-3M melanoma
  GI50: 1.91 µM
  TGI: 3.56 µM
RXF 393 renal
  GI50: 1.67 µM
  TGI: 3.34 µM
K-562 leukemia
  GI50: 2.1 µM
  TGI: 6.13 µM
786-0 renal
  GI50: 1.66 µM
  TGI: 3.21 µM
SF-539 CNS
  GI50: 1.81 µM
  TGI: 3.34 µM
ACHN renal
  GI50: > 23.4 µM
  TGI: > 56.5 µM
U251 CNS
  GI50: 1.89 µM
  TGI: 3.53 µM
NCI-H226 lung
  GI50: > 100 µM
  TGI: > 100 µM
HT29 colon
  GI50: 1.88 µM
  TGI: 4.47 µM
CAKI-1 renal
  GI50: 8.91 µM
HS 578T breast
  GI50: 2.28 µM
  TGI: 19.2 µM
SK-OV-3 ovarian
  GI50: > 47.3 µM
  TGI: > 62.8 µM
EKVX NSCLC
  GI50: > 28.4 µM
  TGI: > 100 µM
NCI-H522 lung
  TGI: > 22.3 µM
SNB-75 CNS
  GI50: 1.58 µM
  TGI: 3.25 µM
UO-31 renal
  GI50: 2.49 µM
TK-10 renal
  GI50: 1.72 µM
  TGI: 3.39 µM
DU-145 prostate
  GI50: > 100 µM
  TGI: > 100 µM
OVCAR-4 ovarian
  GI50: > 100 µM
  TGI: > 100 µM
SK-MEL-2 melanoma
  GI50: 12.3 µM
  TGI: > 22.1 µM
HOP-92 NSCLC
  GI50: 14.3 µM
  TGI: > 62.3 µM
A498 renal
  GI50: 2.55 µM
  TGI: > 26.8 µM
SK-MEL-5 melanoma
  GI50: 1.74 µM
  TGI: 3.17 µM
RPMI-8226 leukemia
  GI50: 2.21 µM
  TGI: 5.19 µM
UACC-257 melanoma
  GI50: 2 µM
  TGI: 3.81 µM
IGROV1 ovarian
  GI50: 2.96 µM
  TGI: 23.7 µM
COLO 205 colon
  GI50: > 100 µM
  TGI: > 100 µM
SF-295 CNS
  GI50: 1.88 µM
  TGI: 3.52 µM
T-47D breast
  GI50: > 100 µM
  TGI: > 100 µM
MOLT-4 leukemia
  GI50: 2.38 µM
  TGI: 6.85 µM
PC-3 prostate
  TGI: > 100 µM
UACC-62 melanoma
  GI50: > 37.7 µM
  TGI: > 67.1 µM
OVCAR-5 ovarian
  GI50: > 100 µM
  TGI: > 100 µM
HCC-2998 colon
  GI50: > 100 µM
  TGI: > 100 µM
HOP-62 NSCLC
  GI50: 44.8 µM
  TGI: > 100 µM
SNB-19 CNS
  GI50: 2.55 µM
  TGI: 6.49 µM

## O=C(NCCNCCO)c1ccc2oc3cc4ccccc4c(=O)n3c2c1
SR leukemia
  GI50: 4.64 µM
  TGI: > 50 µM
SK-MEL-28 melanoma
  GI50: 22.8 µM
  TGI: > 50 µM
HL-60(TB) leukemia
  GI50: 11.7 µM
  TGI: 34 µM
NCI-H23 lung
  GI50: 9.97 µM
  TGI: 23.4 µM
SN12C renal
  GI50: 10.7 µM
  TGI: 33 µM
LOX IMVI melanoma
  GI50: 6.72 µM
  TGI: 14 µM
MDA-MB-435
  GI50: 10.3 µM
  TGI: 24.2 µM
MALME-3M melanoma
  GI50: 12.2 µM
  TGI: 24.1 µM
NCI/ADR-RES ovarian
  GI50: > 50 µM
  TGI: > 50 µM
RXF 393 renal
  GI50: 9.96 µM
  TGI: 21.1 µM
K-562 leukemia
  GI50: 14.9 µM
  TGI: > 50 µM
786-0 renal
  GI50: 14.6 µM
  TGI: 44.4 µM
BT-549 breast
  GI50: 12.3 µM
  TGI: 24.1 µM
U251 CNS
  GI50: 8.52 µM
  TGI: 17.1 µM
MDA-MB-231 breast
  GI50: 8.12 µM
  TGI: 19.9 µM
OVCAR-8 ovarian
  GI50: 8.33 µM
  TGI: 25.5 µM
NCI-H460 lung
  GI50: 7.08 µM
  TGI: 15.4 µM
KM12 colon
  GI50: 10.5 µM
  TGI: 40.4 µM
HT29 colon
  GI50: 16.1 µM
  TGI: > 50 µM
CAKI-1 renal
  GI50: 9.56 µM
  TGI: 29.6 µM
SK-OV-3 ovarian
  GI50: 8.66 µM
  TGI: 20.4 µM
EKVX NSCLC
  GI50: 5.63 µM
  TGI: 19.2 µM
NCI-H522 lung
  GI50: 5.62 µM
  TGI: 14.2 µM
SNB-75 CNS
  GI50: 15.2 µM
  TGI: 47.5 µM
UO-31 renal
  GI50: 7.11 µM
  TGI: 16.8 µM
TK-10 renal
  GI50: 9.93 µM
  TGI: 20.3 µM
SW-620 colon
  GI50: 5.93 µM
  TGI: 14.7 µM
OVCAR-4 ovarian
  GI50: 15.8 µM
  TGI: 36.8 µM
A549 NSCLC
  GI50: 17.6 µM
  TGI: > 50 µM
SK-MEL-2 melanoma
  GI50: 6.52 µM
  TGI: 15.5 µM
HOP-92 NSCLC
  GI50: 7.96 µM
  TGI: 29.6 µM
HCT-116 colon
  GI50: 8.42 µM
  TGI: 19.8 µM
SK-MEL-5 melanoma
  GI50: 9.26 µM
  TGI: 16.4 µM
RPMI-8226 leukemia
  GI50: 12.5 µM
  TGI: 35.6 µM
UACC-257 melanoma
  GI50: 9.88 µM
  TGI: 20.2 µM
IGROV1 ovarian
  GI50: 5.77 µM
  TGI: 17.7 µM
COLO 205 colon
  GI50: 12 µM
  TGI: > 50 µM
SF-295 CNS
  GI50: 14.8 µM
  TGI: > 50 µM
T-47D breast
  GI50: 10.2 µM
  TGI: 27.4 µM
MOLT-4 leukemia
  GI50: 6.88 µM
  TGI: > 50 µM
M14 melanoma
  GI50: 8.6 µM
  TGI: 16.7 µM
PC-3 prostate
  GI50: 13.2 µM
  TGI: > 50 µM
UACC-62 melanoma
  GI50: 7.85 µM
  TGI: 19 µM
HOP-62 NSCLC
  GI50: 9.6 µM
  TGI: 25.5 µM
SF-268 CNS
  GI50: 7.42 µM
  TGI: 18.5 µM
SNB-19 CNS
  GI50: 14.1 µM
  TGI: 40.9 µM

Source: PubChem BioAssay (NCI)
